Test results reported in ChEMBL document CHEMBL5352402, “Discovery of novel non-nucleoside inhibitors with high potency and selectivity for DNA methyltransferase 3A” (Eur J Med Chem, 2022).
Activity calls are given as the source filed them. The calls are words filed in the database; no cut-off is given here.

What was measured:
[1] = test system: DU-145; experiment: Antiproliferative activity against human DU-145 cells assessed as inhibition of cell proliferation incubated for 72 hrs by MTT assay; type: functional, cell-based; settings: DU-145, 72 h
[2] = test system: U-937; experiment: cells; settings: Homo sapiens, U-937, 72 h
Description: Antiproliferative activity against human U-937 cells assessed as inhibition of cell proliferation incubated for 72 hrs by MTT assay

[3] = test system: THP-1; experiment: Antiproliferative activity against human THP-1 cells assessed as inhibition of cell proliferation incubated for 72 hrs by MTT assay; type: functional, cell-based; settings: THP-1, 72 h
[4] = Cytotoxicity activity against human PBMC cells assessed as inhibition of cell proliferation incubated for 72 hrs by MTT assay; type: toxicity, cell-based
[5] = test system: DU-145; experiment: Antiproliferative activity against human DU-145 cells assessed as inhibition of cell proliferation at 0.1 to 100 uM incubated upto 72 hrs by MTT assay; type: functional, cell-based; settings: dose 0.1-100 µM
[6] = test system: HCT-116; experiment: Antiproliferative activity against human HCT-116 cells assessed as inhibition of cell proliferation at 0.1 to 100 uM incubated upto 72 hrs by MTT assay; type: functional, cell-based; settings: dose 0.1-100 µM
[7] = test system: THP-1; experiment: Antiproliferative activity against human THP-1 cells assessed as inhibition of cell proliferation at 0.1 to 100 uM incubated upto 72 hrs by MTT assay; type: functional, cell-based; settings: dose 0.1-100 µM
[8] = test system: HCT-116; experiment: Antiproliferative activity against human HCT-116 cells assessed as inhibition of cell proliferation at 100 uM incubated for 24 to 72 hrs by MTT assay; type: functional, cell-based; settings: time 24-72 hrs, TDE = time-dependent effect
[9] = molecular target: DNMT3B (Homo sapiens, UniProt Q9UBC3); experiment: Inhibition of N-terminal His-tagged human DNMT3B (564 to 853 residues)/N-terminal GST-tagged human DNMT3L (160 to 387 residues) co-expressed in baculovirus infected Sf9 cells assessed as DNA methylation using DNA oligonucleotide IDT-01 as substrate preincubated for 15 mins followed by substrate addition in presence of [3H]-SAM and measured after 4 hrs by radioactive methylation assay
[10] = test system: A549; experiment: cells; settings: Homo sapiens, A549, 72 h
Description: Antiproliferative activity against human A549 cells assessed as inhibition of cell proliferation incubated for 72 hrs by MTT assay

[11] = molecular target: T1, DNMT3A2/3L complex (Homo sapiens) (UniProt Q9Y6K1+Q9UJW3); experiment: Inhibition of N-terminal His-tagged human DNMT3A (623 to 912 residues)/N-terminal GST-tagged human DNMT3L (160 to 387 residues) co-expressed in baculovirus infected Sf9 cells assessed as DNA methylation using DNA oligonucleotide IDT-01 as substrate at 100 uM preincubated for 15 mins followed by substrate addition in presence of [3H]-SAM and measured after 4 hrs by radioactive methylation assay; settings: time 255.0 min
T1 sequence (Q9UJW3 whole entry, looked up, the tested form may be a part): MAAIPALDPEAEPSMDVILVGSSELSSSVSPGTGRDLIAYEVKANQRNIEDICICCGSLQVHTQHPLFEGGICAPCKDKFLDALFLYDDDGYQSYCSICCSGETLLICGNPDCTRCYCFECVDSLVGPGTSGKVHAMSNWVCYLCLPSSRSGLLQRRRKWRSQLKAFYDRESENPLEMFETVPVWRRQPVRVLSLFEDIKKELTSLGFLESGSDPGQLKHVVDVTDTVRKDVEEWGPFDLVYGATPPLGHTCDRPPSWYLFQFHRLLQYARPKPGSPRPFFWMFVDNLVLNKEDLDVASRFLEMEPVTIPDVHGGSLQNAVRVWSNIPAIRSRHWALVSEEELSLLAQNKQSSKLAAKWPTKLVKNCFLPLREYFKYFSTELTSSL
T1 sequence (Q9Y6K1 whole entry, looked up, the tested form may be a part): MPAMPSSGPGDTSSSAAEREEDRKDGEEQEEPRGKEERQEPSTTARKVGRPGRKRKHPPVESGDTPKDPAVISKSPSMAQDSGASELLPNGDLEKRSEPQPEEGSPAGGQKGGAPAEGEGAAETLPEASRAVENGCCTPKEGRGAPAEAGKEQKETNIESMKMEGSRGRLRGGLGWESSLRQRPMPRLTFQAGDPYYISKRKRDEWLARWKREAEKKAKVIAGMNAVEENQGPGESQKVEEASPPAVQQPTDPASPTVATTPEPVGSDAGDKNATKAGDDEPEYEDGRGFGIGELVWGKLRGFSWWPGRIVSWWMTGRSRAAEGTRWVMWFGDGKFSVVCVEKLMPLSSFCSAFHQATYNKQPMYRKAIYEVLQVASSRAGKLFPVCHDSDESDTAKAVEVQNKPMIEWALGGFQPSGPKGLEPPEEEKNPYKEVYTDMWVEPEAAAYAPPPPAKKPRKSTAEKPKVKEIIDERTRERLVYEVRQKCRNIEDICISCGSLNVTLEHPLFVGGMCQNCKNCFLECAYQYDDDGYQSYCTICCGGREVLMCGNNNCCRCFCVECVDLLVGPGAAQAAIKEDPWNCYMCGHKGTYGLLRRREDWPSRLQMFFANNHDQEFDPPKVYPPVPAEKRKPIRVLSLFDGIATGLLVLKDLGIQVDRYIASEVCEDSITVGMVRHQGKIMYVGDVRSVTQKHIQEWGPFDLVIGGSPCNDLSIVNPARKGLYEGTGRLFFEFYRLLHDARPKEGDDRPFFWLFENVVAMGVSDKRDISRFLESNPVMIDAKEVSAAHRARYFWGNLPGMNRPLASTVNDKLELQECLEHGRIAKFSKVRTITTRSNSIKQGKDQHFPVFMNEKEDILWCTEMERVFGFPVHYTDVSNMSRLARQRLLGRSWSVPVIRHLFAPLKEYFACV

[12] = molecular target: DNA (cytosine-5)-methyltransferase 3A (Homo sapiens) (UniProt Q9Y6K1); experiment: Inhibition of DNMT3A in human HCT-116 cells assessed as increase in p53 protein level at 1 uM incubated for 72 hrs by Western blot analysis; type: cell-based
Sequence of DNA (cytosine-5)-methyltransferase 3A (Homo sapiens) (Q9Y6K1 whole entry, looked up): as the sequence (Q9Y6K1 whole entry, looked up, the tested form may be a part) above

[13] = molecular target: T2, Histone-lysine N-methyltransferase EHMT2 (Homo sapiens, UniProt Q96KQ7); experiment: Inhibition of N-terminal GST-tagged human G9a expressed in baculovirus infected Sf9 cells using biotinylated histone H3 peptide as substrate preincubated for 15 mins followed by substrate addition in presence of SAM and measured after 60 mins by AlphaLISA assay
T2 sequence (Q96KQ7 whole entry): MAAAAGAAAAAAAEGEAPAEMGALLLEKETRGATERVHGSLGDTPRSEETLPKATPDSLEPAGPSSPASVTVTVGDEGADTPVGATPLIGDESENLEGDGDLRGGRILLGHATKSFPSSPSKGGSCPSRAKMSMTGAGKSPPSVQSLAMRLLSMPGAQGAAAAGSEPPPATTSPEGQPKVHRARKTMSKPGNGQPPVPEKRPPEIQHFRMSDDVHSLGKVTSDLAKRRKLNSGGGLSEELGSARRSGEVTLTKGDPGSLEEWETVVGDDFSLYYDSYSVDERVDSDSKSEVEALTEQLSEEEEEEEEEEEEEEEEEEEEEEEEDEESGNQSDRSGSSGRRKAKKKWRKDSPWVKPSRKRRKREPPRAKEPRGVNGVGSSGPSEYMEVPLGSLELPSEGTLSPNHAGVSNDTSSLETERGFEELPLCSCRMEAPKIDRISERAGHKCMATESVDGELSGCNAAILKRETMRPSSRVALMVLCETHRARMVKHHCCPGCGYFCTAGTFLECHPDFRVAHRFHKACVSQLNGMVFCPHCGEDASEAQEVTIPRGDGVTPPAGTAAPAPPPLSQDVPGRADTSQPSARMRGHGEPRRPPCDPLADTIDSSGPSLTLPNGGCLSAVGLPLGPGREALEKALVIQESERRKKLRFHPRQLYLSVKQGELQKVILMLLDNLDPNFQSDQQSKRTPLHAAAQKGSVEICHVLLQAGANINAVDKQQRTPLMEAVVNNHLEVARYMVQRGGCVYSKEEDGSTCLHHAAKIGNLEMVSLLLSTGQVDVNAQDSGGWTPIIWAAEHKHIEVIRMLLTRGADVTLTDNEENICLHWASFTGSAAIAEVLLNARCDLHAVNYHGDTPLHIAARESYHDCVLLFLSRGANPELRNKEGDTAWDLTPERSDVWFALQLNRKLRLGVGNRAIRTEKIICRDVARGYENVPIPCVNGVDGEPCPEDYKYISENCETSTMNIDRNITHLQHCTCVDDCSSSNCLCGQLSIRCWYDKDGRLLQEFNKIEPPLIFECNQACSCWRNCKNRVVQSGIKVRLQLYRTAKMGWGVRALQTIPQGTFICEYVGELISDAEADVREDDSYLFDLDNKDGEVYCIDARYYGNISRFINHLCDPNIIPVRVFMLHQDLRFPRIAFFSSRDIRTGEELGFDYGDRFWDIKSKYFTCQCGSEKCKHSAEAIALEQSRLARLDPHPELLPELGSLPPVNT

[14] = test system: A549; experiment: Antiproliferative activity against human A549 cells assessed as inhibition of cell proliferation at 0.1 to 100 uM incubated upto 72 hrs by MTT assay; type: functional, cell-based; settings: dose 0.1-100 µM
[15] = test system: U-937; experiment: Antiproliferative activity against human U-937 cells assessed as inhibition of cell proliferation at 0.1 to 100 uM incubated upto 72 hrs by MTT assay; type: functional, cell-based; settings: dose 0.1-100 µM
[16] = test system: K562; experiment: Antiproliferative activity against human K562 cells assessed as inhibition of cell proliferation at 0.1 to 100 uM incubated upto 72 hrs by MTT assay; type: functional, cell-based; settings: dose 0.1-100 µM
[17] = test system: A549; experiment: Antiproliferative activity against human A549 cells assessed as inhibition of cell proliferation at 100 uM incubated for 24 to 72 hrs by MTT assay; type: functional, cell-based; settings: time 24-72 hrs, TDE = time-dependent effect
[18] = test system: U-937; experiment: Antiproliferative activity against human U-937 cells assessed as inhibition of cell proliferation at 100 uM incubated for 24 to 72 hrs by MTT assay; type: functional, cell-based; settings: time 24-72 hrs, TDE = time-dependent effect
[19] = test system: DU-145; experiment: Antiproliferative activity against human DU-145 cells assessed as inhibition of cell proliferation at 100 uM incubated for 24 to 72 hrs by MTT assay; type: functional, cell-based; settings: time 24-72 hrs, TDE = time-dependent effect
[20] = molecular target: DNA (cytosine-5)-methyltransferase 3A (Homo sapiens) (UniProt Q9Y6K1); experiment: Inhibition of DNMT3A in human HCT-116 cells assessed as downregulation of DNMT3A protein level at 1 uM incubated for 72 hrs by Western blot analysis; type: cell-based
[21] = test system: K562; experiment: Antiproliferative activity against human K562 cells assessed as inhibition of cell proliferation incubated for 72 hrs by MTT assay; type: functional, cell-based; settings: K562, 72 h
[22] = test system: HCT-116; experiment: cells; settings: Homo sapiens, HCT-116, 72 h
Description: Antiproliferative activity against human HCT-116 cells assessed as inhibition of cell proliferation incubated for 72 hrs by MTT assay

[23] = molecular target: T1, DNMT3A2/3L complex (Homo sapiens); experiment: Inhibition of N-terminal His-tagged human DNMT3A (623 to 912 residues)/N-terminal GST-tagged human DNMT3L (160 to 387 residues) co-expressed in baculovirus infected Sf9 cells assessed as DNA methylation using DNA oligonucleotide IDT-01 as substrate at 10 uM preincubated for 15 mins followed by substrate addition in presence of [3H]-SAM and measured after 4 hrs by radioactive methylation assay; settings: time 255.0 min
[24] = test system: THP-1; experiment: Antiproliferative activity against human THP-1 cells assessed as inhibition of cell proliferation at 100 uM incubated for 24 to 72 hrs by MTT assay; type: functional, cell-based; settings: time 24-72 hrs, TDE = time-dependent effect
[25] = molecular target: DNA (cytosine-5)-methyltransferase 1 (Homo sapiens, UniProt P26358); experiment: Inhibition of N-terminal GST-tagged full-length recombinant human DNMT1 assessed as DNA methylation using pdI-pdC DNA as substrate preincubated for 15 mins followed by substrate addition in presence of [3H]-SAM and measured after 150 mins by radioactive methylation assay
Sequence of DNA (cytosine-5)-methyltransferase 1 (P26358 whole entry): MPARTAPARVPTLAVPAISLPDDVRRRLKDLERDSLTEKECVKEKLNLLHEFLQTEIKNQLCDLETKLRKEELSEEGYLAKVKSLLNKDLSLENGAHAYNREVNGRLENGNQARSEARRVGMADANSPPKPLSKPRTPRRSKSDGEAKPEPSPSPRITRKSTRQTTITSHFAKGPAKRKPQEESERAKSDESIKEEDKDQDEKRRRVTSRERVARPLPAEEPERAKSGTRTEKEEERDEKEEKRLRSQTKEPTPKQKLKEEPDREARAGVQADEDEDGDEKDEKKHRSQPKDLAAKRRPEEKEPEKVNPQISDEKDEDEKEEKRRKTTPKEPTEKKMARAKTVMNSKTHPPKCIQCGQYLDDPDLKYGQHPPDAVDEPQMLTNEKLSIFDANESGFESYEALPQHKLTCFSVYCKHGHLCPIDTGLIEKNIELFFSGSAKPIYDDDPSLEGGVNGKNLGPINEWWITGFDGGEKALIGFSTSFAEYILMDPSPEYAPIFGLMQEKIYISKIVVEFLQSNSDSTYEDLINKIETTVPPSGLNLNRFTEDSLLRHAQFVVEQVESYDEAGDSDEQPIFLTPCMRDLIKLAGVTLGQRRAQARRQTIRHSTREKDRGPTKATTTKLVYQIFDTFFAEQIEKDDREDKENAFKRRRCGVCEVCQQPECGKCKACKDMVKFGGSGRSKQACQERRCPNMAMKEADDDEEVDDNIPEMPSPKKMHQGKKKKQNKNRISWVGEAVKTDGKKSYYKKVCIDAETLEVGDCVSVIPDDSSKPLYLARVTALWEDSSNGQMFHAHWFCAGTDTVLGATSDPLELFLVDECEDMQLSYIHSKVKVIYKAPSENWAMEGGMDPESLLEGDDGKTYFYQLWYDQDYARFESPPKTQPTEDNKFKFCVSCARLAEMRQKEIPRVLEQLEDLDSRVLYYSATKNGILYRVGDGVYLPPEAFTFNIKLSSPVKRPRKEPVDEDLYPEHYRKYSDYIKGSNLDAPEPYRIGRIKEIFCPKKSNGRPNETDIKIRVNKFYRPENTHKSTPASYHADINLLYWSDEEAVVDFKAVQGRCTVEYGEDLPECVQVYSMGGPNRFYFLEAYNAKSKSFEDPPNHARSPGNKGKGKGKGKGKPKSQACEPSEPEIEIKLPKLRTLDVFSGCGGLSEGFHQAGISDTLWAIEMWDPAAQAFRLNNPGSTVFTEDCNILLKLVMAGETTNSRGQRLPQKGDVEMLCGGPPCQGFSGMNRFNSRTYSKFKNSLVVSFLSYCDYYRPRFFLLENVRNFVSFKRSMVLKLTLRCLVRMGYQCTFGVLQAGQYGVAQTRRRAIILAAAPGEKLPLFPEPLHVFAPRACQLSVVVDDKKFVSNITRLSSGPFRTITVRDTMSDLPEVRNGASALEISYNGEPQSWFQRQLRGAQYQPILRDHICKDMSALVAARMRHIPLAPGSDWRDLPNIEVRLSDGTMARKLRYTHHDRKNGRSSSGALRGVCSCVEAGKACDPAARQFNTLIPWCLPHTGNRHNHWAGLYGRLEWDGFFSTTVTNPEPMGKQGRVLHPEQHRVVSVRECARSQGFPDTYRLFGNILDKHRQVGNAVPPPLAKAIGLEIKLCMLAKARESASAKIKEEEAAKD

[26] = test system: K562; experiment: Antiproliferative activity against human K562 cells assessed as inhibition of cell proliferation at 100 uM incubated for 24 to 72 hrs by MTT assay; type: functional, cell-based; settings: time 24-72 hrs, TDE = time-dependent effect
[27] = molecular target: DNMT3A2/3L complex (Homo sapiens, UniProt Q9Y6K1); experiment: Inhibition of N-terminal His-tagged human DNMT3A (623 to 912 residues)/N-terminal GST-tagged human DNMT3L (160 to 387 residues) co-expressed in baculovirus infected Sf9 cells assessed as DNA methylation using DNA oligonucleotide IDT-01 as substrate preincubated for 15 mins followed by substrate addition in presence of [3H]-SAM and measured after 4 hrs by radioactive methylation assay
Sequence of DNMT3A2/3L complex (Q9Y6K1 whole entry, looked up, the tested form may be a part, one chain of several): as the sequence (Q9Y6K1 whole entry, looked up, the tested form may be a part) above

Structure (SMILES) | IC50 [1] | IC50 [2] | IC50 [3] | IC50 at 72 h [4] | Activity [5] | Activity [6] | Activity [7] | Activity [8] | IC50 [9] | IC50 [10] | inhibition [11] | IC50 [13] | Activity [14] | Activity [15] | Activity [16] | Activity [17] | Activity [18] | Activity [19] | IC50 [21] | IC50 [22] | further results
Cc1oc2ncn(CCN(C)C)c(=O)c2c1C(=O)Nc1ccc(S(N)(=O)=O)nc1 | 3.7 µM | 2.3 µM | 1.8 µM | 131 µM | Dose-Dependent Effect | Dose-Dependent Effect | Dose-Dependent Effect | Tde | 220 µM | 4.6 µM | 81.8% | > 500 µM | Dose-Dependent Effect | Dose-Dependent Effect | Dose-Dependent Effect | Tde | Tde | Tde | 1.6 µM | 0.5 µM | p53 protein level increase (active/not active) [12]: Active; inhibition [20]: Active; inhibition [23]: 74.7%; Activity [24]: Tde; IC50 [25]: 20.9 µM; Activity [26]: Tde
Cc1oc2ncn(CCCN3CCCC3)c(=O)c2c1C(=O)Nc1ccc(S(N)(=O)=O)nc1 | 2.8 µM | 4.2 µM | 3.3 µM | 161 µM | Dose-Dependent Effect | Dose-Dependent Effect | Dose-Dependent Effect | Tde | 120 µM | 15.7 µM | 94.1% | 308 µM | Dose-Dependent Effect | Dose-Dependent Effect | Dose-Dependent Effect | Tde | Tde | Tde | 6.5 µM | 2.1 µM | IC50 [27]: 1.8 µM; inhibition [23]: 69.6%; Activity [24]: Tde; IC50 [25]: 9.6 µM; Activity [26]: Tde
Cc1oc2ncn(CCCN3CCCCC3)c(=O)c2c1C(=O)Nc1ccc(S(N)(=O)=O)nc1 | 4.1 µM | 3.5 µM | 4.2 µM | 144 µM | Dose-Dependent Effect | Dose-Dependent Effect | Dose-Dependent Effect | Tde | 64.7 µM | 8.5 µM | 89.8% | 14.9 µM | Dose-Dependent Effect | Dose-Dependent Effect | Dose-Dependent Effect | Tde | Tde | Tde | 5.4 µM | 1.6 µM | IC50 [27]: 1.3 µM; inhibition [23]: 66%; Activity [24]: Tde; IC50 [25]: 15.9 µM; Activity [26]: Tde
Cc1cc(Nc2ccc(NC(=O)c3ccc(Nc4ccnc5ccccc45)cc3)cc2)nc(N)n1 | 3.4 µM | 0.7 µM | 0.7 µM | 2 µM | – | – | – | – | – | 8.9 µM | – | – | – | – | – | – | – | – | 0.6 µM | 0.9 µM | p53 protein level increase (active/not active) [12]: inactive; inhibition [20]: inactive
